Experiment [1] has as its system NFκB. Kind of experiment: NFκB-INHIBITION TEST (NF-kB gene reporter luciferase, TNFα-stimulated FB293 cells). Type of experiment: cell-based, human. How it is done:
The NFκB-INHIBITION TEST is conducted in the following manner. FB293 cells, a stable transfected human epithelial cell line containing the gene reporter for NF-kB are used. They may be obtained from, e.g., Panomics (Fremont, Calif.). FB293 are plated at a density of 5×10^4 cells/mL in a suitable medium, e.g., Dulbecco's modified Eagle's medium (DMEM) supplemented with 10% fetal bovine serum (Invitrogen, San Diego, Calif.). The FB293 cells are stimulated with 100 ng/mL of Tumor Necrosis Factor-α (TNFα, available from Sigma-Aldrich of St Louis, Mo.) in the presence of the test sample. Separately, a control sample is tested wherein no test sample is applied. Following a 24-hour incubation at 37° C. with 5% CO2, cells are lysed with 40 μl of reporter lysis buffer (Promega, Madison, Wis.). A 20-μl aliquot of the lysate is assayed using a luciferase assay kit (Promega) and counted for 10 s in a Lmax luminometer (Molecular Devices, Sunnyvale, Calif.) with the data represented as the relative light unit/second. Percent NFκB Inhibition of the test sample is calculated as: NFκB Inhibition=[1−(Lsample/Lcontrol)]*100 where Lsample is the luminescence of the sample and Lcontrol is the luminescence of the control.
The NFκB-INHIBITION TEST described above was performed on test samples of Bay 11-7082 (Sigma-Aldrich, St. Louis, Mo.), Tetrahydrocurcuminoids CG (Sabinsa Corporation, Piscataway, N.J.), as well as various concentrations of 4-hexylresorcinol. The results are shown in Table 1, in which NF-kB Gene Reporter Activation (Luminescence, L) is reported for the test samples and a control sample. Percent NF-kB Inhibition is also reported.
The NFκB-INHIBITION TEST described above was performed on a series of substituted resorcinols each having a concentration of 10 ug/ml.

Experiment [2] relates to elastin promoter. Kind of experiment: TROPOELASTIN PROMOTER ASSAY (elastin promoter-luciferase reporter in H9C2 cells). Type of experiment: cell-based, rat. Conditions: 0.1 ug/ml on active basis; for Percent Change Over Vehicle: 24 h (Table 3). How it is done:
Suitable tropoelastin promoters may be determined, for example, using the TROPOELASTIN PROMOTER ASSAY. The TROPOELASTIN PROMOTER ASSAY is performed as follows. Rat cardiac myoblasts H9C2 (which may be purchased, for example from ATCC of Manassas, Va.) are used. Cultures are maintained in Dulbecco's modified Eagle's medium (DMEM, Invitrogen Life Technologies, Carlsbad, Calif.) supplemented with 10% fetal bovine serum, 2 mM glutamine, 100 units/ml penicillin, and 50 ug/ml streptomycin (Invitrogen Life Technologies, Carlsbad, Calif.). Cell cultures are transiently transfected with the elastin promoter-luciferase reporter construct (Elp2.2, a 2.2 kb elastin promoter fragment from nt −2267 to nt +2, driving the firefly luciferase gene, which may be obtained from Promega, Madison Wis.). DNA is prepared by Qiagen Maxi columns (Qiagen Valencia, Calif.). In all transfections, a construct with the thymidine kinase promoter and the Renilla luciferase reporter gene (pRL-TK, Promega, Madison Wis.) is included as an internal control. Typically, cells grown in 48-well plates are transfected with 0.45 ug total DNA per well using Lipofectamine 2000 (Invitrogen Life Technologies, Carlsbad, Calif.). One day after transfection, cells are treated with agents at indicated concentrations for approximately 24 hours before they are lysed for luciferase assays, using Dual-Luciferase Reporter System from Promega (Madison, Wis.), following manufacturer's protocol. The firefly luciferase activity is measured first (representing elastin promoter activity), followed by the renilla luciferase (internal control), using luminometer LMAX, from Molecular Devices (Sunnyvale, Calif.). The ratio of these two luciferase activities (RLU) is used to evaluate the Tropoelastin Promoter Activity. […]

Setting [3] is: 10 ug/ml, series of substituted resorcinols (Table 2).

The structures appear in SMILES notation.

On to `C[C@H]1CCC[C@@H](O)CCC/C=C/c2cc(O)cc(O)c2C(=O)O1` [β-Zearalenol], for which, in experiment [1] (setting [3]), the “Percent NF-kB Inhibition” value is given as 87.1%.

Consider `CC1CCCC(=O)CCCCCc2cc(O)cc(O)c2C(=O)O1` (stereo not drawn) [Zearalanone], for which the “Percent NF-kB Inhibition” value in experiment [1] (setting [3]) was found to be 50.95%.

Consider `CCCCCCCCCCCC1c2cc(c(O)cc2O)C(CCCCCCCCCCC)c2cc(c(O)cc2O)C(CCCCCCCCCCC)c2cc(c(O)cc2O)C(CCCCCCCCCCC)c2cc1c(O)cc2O` (stereo not drawn) [C-Undecylcalix[4]-resorcinarene, C-Undecylcalix[4]-resorcinarene], for which, in experiment [1] (setting [3]), the “Percent NF-kB Inhibition” value was determined as 4.87%.

`CCCCCCc1ccc(O)cc1O` [4-Hexylresorcinol]: the “Percent NF-kB Inhibition” value in experiment [1] (1 ug/ml, TNFα 100 ng/ml stimulated FB293 cells, 24 h) came to 1.9%; in experiment [1] (5 ug/ml, TNFα 100 ng/ml stimulated FB293 cells, 24 h), 50.9%; in experiment [1] (10 ug/ml, TNFα 100 ng/ml stimulated FB293 cells, 24 h (Table 1)) it was 72.9%; in experiment [1] (setting [3]), 92.4%; in experiment [1] (50 ug/ml, TNFα 100 ng/ml stimulated FB293 cells, 24 h) it was 91.4%. Further, the “Percent Change Over Vehicle” value in experiment [2] and in experiment [2] (listed as 4-hexylresorcinol) was −12% in each case. Further, the “Tropoelastin Promoter Activity” value in experiment [2] (24 h, vehicle 1.36 ± 0.33 (Table 3)) is recorded as 1.2 ± 0.12.

With `CC1CCCC(O)CCCCCc2cc(O)cc(O)c2C(=O)O1` (stereo not drawn) [β-Zearalanol], the “Percent NF-kB Inhibition” value in experiment [1] (setting [3]) came out at 76.56%.

The record behind these values is patent US9375395B2, “Compositions comprising an NFκB-inhibitor and a tropoelastin promoter” (JOHNSON & JOHNSON CONSUMER INC., priority 2009, dated 2016).
